Consider 16 molecules from US7098204B2 (C.N.R.S., priority 1999, dated 2006).

≈ marks a conversion by molar mass, not a printed value. Like-named read-outs stand apart in the source and are kept apart here. Where only a bound is given, the exact number is not on record here.

Experiment [1] deals with casein kinase 1. The experiment can be described thus: casein kinase 1 assay. The class given is biochemical. The note with it: 15 μM ATP; −(x) = no effect at highest concentration x tested; read-out: IC50 casein kinase 1 (CK 1). Here is the method: (§1) Kinases activities were assayed in Buffer A or C (unless otherwise stated), at 30° C., at a final ATP concentration of 15 μM. Blank values were subtracted and activities calculated as pmoles of phosphate incorporated for a 10 min. incubation (usually expressed in % of the maximal activity, i.e. without inhibitors). Controls were performed with appropriate dilutions of Me2SO. In some cases phosphorylation of the substrate was assessed by autoradiography after SDS-PAGE. IC50 values were estimated from the dose-response curves. • CDK1/cyclin B was extracted in homogenisation buffer from M phase starfish (Marthasterias glacialis) oocytes and purified by affinity chromatography on p9^CKShs1-Sepharose beads, from which it was eluted by free p9^CKShs1 as described. The kinase activity was assayed in buffer C, with 1 mg histone H1/ml, in the presence of 15 μM [γ-^32P] ATP (3,000 Ci/mmol; 1 mCi/ml) in a final volume of 30 μl. After 10 min. incubation at 30° C., 25 μl aliquots of supernatant were spotted onto 2.5×3 cm pieces of Whatman P81 phosphocellulose paper, and, 20 sec. later, the filters were washed five times (for at least 5 min. each time) in a solution of 10 ml phosphoric acid/liter of water. The wet filters were counted in the presence of 1 ml ACS (Amersham) scintillation fluid. • GSK-3β was either purified from rabbit muscle or expressed in and purified from insect Sf9 cells. It was assayed, following a 1/100 dilution in 1 mg BSA/ml 10 mM DTT, with 5 μl 40 μM GS-1 peptide as a substrate, in buffer A, in the presence of 15 μM [γ-^32P] ATP (3,000 Ci/mmol; 1 mCi/ml) in a final volume of 30 μl. […] Its activity was assayed in buffer C as described for CDK1/cyclin B. • CDK2/cyclin A, CDK2/cyclin E, CDK3/cyclin E, CDK4/cyclin D1, CDK6/cyclin D2, His-tagged erk1 and erk2, protein kinase C isoforms, the catalytic subunit of cAMP-dependent protein kinase, cGMP-dependent protein kinase, Myosin light chain kinase, casein kinases 1 & 2, ASK-γ (a plant homologue of GSK-3), insulin receptor tyrosine kinase domain (CIRK-41), c-raf, MAPKK, c-jun N terminal kinase (obtained from Promega), c-src kinase and v-abl kinase were assayed as described. Electrophoresis and Western Blotting

The target of experiment [2] is T1, GSK3-β (UniProt P18266).
T1 construct: GSK-3β was either purified from rabbit muscle or expressed in and purified from insect Sf9 cells [18]
The experiment can be described thus: GSK-3β kinase assay (GS-1 peptide). The class given is biochemical, rabbit. As for the experimental part:
as §1

The target in experiment [3] is cdk5/p25 (Homo sapiens, UniProt Q00535). The experiment can be described thus: CDK5/p25 kinase assay. As to conditions: for IC50: 15 μM ATP, −(x) = no effect at highest concentration x tested. The class given is biochemical. As for the experimental part: as §1
cdk5/p25, sequence (Q00535 whole entry, species assumed): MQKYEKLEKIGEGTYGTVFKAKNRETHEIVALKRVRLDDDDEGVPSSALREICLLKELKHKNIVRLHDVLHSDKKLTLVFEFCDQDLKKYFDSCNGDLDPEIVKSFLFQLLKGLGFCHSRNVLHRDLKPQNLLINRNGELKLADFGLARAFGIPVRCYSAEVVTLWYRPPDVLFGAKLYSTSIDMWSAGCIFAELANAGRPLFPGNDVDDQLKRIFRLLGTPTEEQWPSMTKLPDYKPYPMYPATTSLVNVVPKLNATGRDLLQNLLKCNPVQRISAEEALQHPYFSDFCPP
cdk5/p25, sequence (Q15078 99-307 partner limits assumed, species assumed): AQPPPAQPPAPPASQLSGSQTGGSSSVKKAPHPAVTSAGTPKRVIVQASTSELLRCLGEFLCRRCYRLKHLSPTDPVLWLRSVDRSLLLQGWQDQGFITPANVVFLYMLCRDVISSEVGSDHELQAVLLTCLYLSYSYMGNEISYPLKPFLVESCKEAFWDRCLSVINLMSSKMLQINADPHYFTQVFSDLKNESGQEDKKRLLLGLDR
The target of experiment [4] is CDK1/cyclin B. Nature of the experiment: CDK1/cyclin B kinase assay (histone H1). As to conditions: 15 μM ATP; −(x) = no effect at highest concentration x tested. The class given is biochemical, starfish (Marthasterias glacialis). Here is the method:
as §1

Experiment [5] deals with P388 cell line. The experiment can be described thus: Inhibition of cell proliferation, P388. The class given is cell-based.
Experiment [6] deals with melanoma, SK-MEL-5. Nature of the experiment: Human cancer cell line SK-MEL-5 proliferation. In kind it is cell-based.
In experiment [7] the test system is colon, KM20L2. Nature of the experiment: Human cancer cell line KM20L2 proliferation. The class given is cell-based. The note with it: KM-20L2.
In experiment [8] the test system is lung, H460. Nature of the experiment: Human cancer cell line H460 proliferation. The class given is cell-based. The note with it: NCI-H460.
The subject of experiment [9] is ovary, OVCAR-3. Nature of the experiment: Human cancer cell line OVCAR-3 proliferation. The class given is cell-based.
Experiment [10] deals with kidney, A498. Nature of the experiment: Human cancer cell line A498 proliferation. The class given is cell-based.
Experiment [11] has as its system brain, SF-295. The experiment can be described thus: Human cancer cell line SF-295 proliferation. In kind it is cell-based.
Experiment [12] relates to GSK-3β like activity in Sf9 cells. Nature of the experiment: Tau (htau23) phosphorylation in Sf9 cells, Western blotting. In kind it is cell-based. The note with it: 50 μM, 5 hrs, Sf9 cells expressing htau23. Background: Immunoblotting shows a protein as a band on a membrane.
Experimental: Cells and viruses. Sf9 cells (InVitrogen, San Diego, Calif.) were grown at 27° C. in monolayer culture Grace's medium (Gibco BRL, Gaithersburg, Md.) supplemented with 10% fetal bovine serum and 50 μg gentamycin/ml and 2.5 μg amphotericin/ml. BaculoGold was obtained from PharMingen (San Diego, Calif.), pVL1392 from In Vitrogen.
Tau transfection. The gene for htau23, the shortest human tau isoform [27] was excised from the bacterial expression vector pNG2 [28] with XbaI and BamHI, and inserted into the baculovirus transfer vector pVL1392 cut with the same restriction endonucleases. The BaculoGold system was used to construct the tau baculovirus containing vector. The BaculoGold DNA is a modified type of baculovirus containing a lethal deletion. Cotransfection of the BaculoGold DNA with a complementing baculovirus transfer vector rescued the lethal deletion of this virus DNA and reconstituted viable virus particles carrying the htau23 coding sequence. Plasmid DNA used for transfections was purified using QIAGEN cartridges (Hilden, Germany). Sf9 cells grown in monolayers (2×10^6 cells in a 60 mm cell culture dish) were cotransfected with baculovirus DNA (0.5 μg BaculoGold DNA) and with vector derivatives of pVL1392 (2 μg) using a calcium phosphate coprecipitation method. […]
The mark [13] stands for this setting: 15 μM ATP, −(x) = no effect at highest concentration x tested, read-out: IC50 GSK3-β.

Usually IC50 stands for the concentration at which inhibition is half-maximal. Turning to diacetylhymenialdisine, the IC50 in experiment [1] turned out to be 0.55 µM; in [2] (setting [13]), 0.16 µM; in [3] it was 1.5 µM; in [4], 0.13 µM; in experiment [5] (read-out: IC50 on P388 cell line in μM (parentheses)), 1.7 µM. In addition, in experiment [5], the “IC50 on P388 cell line” value is 0.56 µg/mL.
`O=C1N[C@H]2n3c(cc(Br)c3Br)C(=O)N3CCC[C@]23N1` [dibromophakellstatin]: the IC50 is 0.11 µg/mL (≈ 0.282 µM) in experiment [6]; over 10 µM in [1]; 0.11 µg/mL (≈ 0.282 µM) in experiment [7]; over 10 µM in experiment [2] (setting [13]); 0.62 µg/mL (≈ 1.59 µM) in experiment [8]; over 100 µM in [3]. Also, the concentration for half-maximal inhibition (IC50) in experiment [4] was over 10 µM; in experiment [9], 0.46 µg/mL (≈ 1.18 µM); in experiment [10] it was 0.21 µg/mL (≈ 0.538 µM); in experiment [11], 1.5 µg/mL (≈ 3.85 µM).
For the molecule `CN1CC[C@H](c2c(O)cc(O)c3c(=O)cc(-c4ccccc4Cl)oc23)[C@H](O)C1` [flavopiridol, reference compound], in experiment [12], the “AT100 signal (tau phosphorylated at T212 and S214)” value is “disappearance of AT100 signal”.
With `O=C1NC(=O)/C(=C2/CCNC(=O)c3[nH]c(Br)cc32)N1` [axinohydantoin], the IC50 in experiment [1] came to 4.5 µM; in experiment [2] (setting [13]) it was 3 µM; in experiment [3], 7 µM; in experiment [4], 4 µM.
In the same order, the values of `Nc1ncc(C2=CCNC(=O)c3[nH]c(Br)c(Br)c32)[nH]1` [stevensine/odiline] are over 100 µM, over 100 µM, over 100 µM and 70 µM.
In the case of `NC1=NC(=O)/C(=C/CCNC(=O)c2cc(Br)c(Br)[nH]2)N1` [dispacamide A], the IC50 in experiment [1], in experiment [2] (setting [13]), in [3] and in experiment [4] was over 100 µM throughout.
With diacetyldebromohymenialdisine, the IC50 in [1] was 1.1 µM; in experiment [2] (setting [13]), 0.6 µM; in experiment [3] it was 3 µM; in experiment [4], 1.3 µM.
Consider `Nc1ncc(/C=C/CNC(=O)c2ccc[nH]2)[nH]1` [clathrodin], for which the IC50 in experiment [1], in experiment [3] and in experiment [4] was over 100 µM each time.
With `NC1=N[C@H]2c3c([nH]c(Br)c3Br)C(=O)N3CCC[C@]23N1` [dibromocantharelline], the IC50 in experiment [1] is over 100 µM; in experiment [2] (read-out: IC50 towards GSK-3β), 3 µM; in experiment [3], over 100 µM; in experiment [4], over 100 µM.
As to `Nc1ncc(/C=C/CNC(=O)c2cc(Br)c(Br)[nH]2)[nH]1` [oroïdin], the IC50 was over 100 µM in experiment [1], 20 µM in experiment [2] (setting [13]), 50 µM in experiment [3] and over 100 µM in experiment [4].
Regarding agelastatin A, the IC50 in [1] is over 100 µM; in [2] (setting [13]) it was 12 µM; in [3] it was over 100 µM; in [4], over 100 µM.
On to `Nc1nc([C@H]2[C@H](CNC(=O)c3cc(Br)c[nH]3)[C@@H](CNC(=O)c3cc(Br)c[nH]3)[C@@H]2c2c[nH]c(N)n2)c[nH]1` [sceptrin], for which the IC50 in experiment [1], in [2] (setting [13]), in experiment [3] and in [4] was over 100 µM each time.
Turning to `O=C([O-])c1ccc[n+](CCOC(=O)c2cc(Br)c[nH]2)c1` [agelongine], the concentration for half-maximal inhibition (IC50) in [1], in experiment [2] (setting [13]), in [3] and in experiment [4] was over 100 µM each time.
As for `Nc1ncc(/C=C/CNC(=O)c2cc(Br)c[nH]2)[nH]1` [hymenidin], the IC50 is over 100 µM in experiment [1], 12 µM in experiment [2] (setting [13]), 4 µM in experiment [3] and over 100 µM in [4]. The “kinase selectivity among CDK1, CDK5, GSK-3β, CK1” value in experiment [3] (in words) is reported as “selective for CDK5”.
As for `NC1=N[C@H]2n3c(cc(Br)c3Br)C(=O)N3CCC[C@]23N1` [dibromophakellin, reference compound], the IC50 in experiment [6] came out at 17 µg/mL (≈ 43.7 µM); in experiment [7], 20.1 µg/mL (≈ 51.7 µM); in experiment [8] it was 22 µg/mL (≈ 56.5 µM); in [9], 15.7 µg/mL (≈ 40.4 µM); in experiment [10], 17.8 µg/mL (≈ 45.8 µM); in [11], 18.8 µg/mL (≈ 48.3 µM).
For the molecule `Nc1ncc(C2c3nc(N)[nH]c3CC(CNC(=O)c3cc(Br)c(Br)[nH]3)C2CNC(=O)c2cc(Br)c(Br)[nH]2)[nH]1` (centres unmarked) [dibromoageliferin], the IC50 in experiment [1] was over 100 µM; in experiment [2] (setting [13]) it was 11 µM; in experiment [3] it was over 100 µM; in [4] it was over 100 µM.
